Reference: ChEMBL document CHEMBL3044801, “Synthesis and antiprotozoal activity of 1,2,3,4-tetrahydro-2-thioxopyrimidine analogs of combretastatin A-4” (Med Chem Res, 2011)
Active and inactive are the calls of the source. No cut-off for these calls is given here.

Tests used:
B16 = test: Cytotoxicity against Mus musculus (mouse) B16 cells after 72 hr by MTT assay; type: cell-based; details: B16, 72 h
Leishmania tarentolae = test: Antiprotozoan activity against Leishmania tarentolae after 72 hr by MTT assay; type: functional, organism-based
Plasmodium falciparum = test: Antiprotozoan activity against Plasmodium falciparum assessed as inhibition of [3H]hypoxanthine incorporation incubated for 24 hr prior to [3H]hypoxanthine addition measured after 18 hr by liquid scintillation counting; type: functional, organism-based
Giardia intestinalis [1] = test: Antiprotozoan activity against Giardia intestinalis after 72 hr by MTT assay; type: functional, organism-based; details: Giardia duodenalis
Trypanosoma lewisi = test: Antiprotozoan activity against Trypanosoma lewisi after 72 hr by MTT assay; type: functional, organism-based
L1210 = test: Cytotoxicity against Mus musculus (mouse) L1210 cells after 72 hr by MTT assay; type: cell-based; details: L1210, 72 h
[2] = Selectivity index, ratio of IC50 for mouse L1210 cells to IC50 for Giardia lamblia
[3] = Selectivity index, ratio of IC50 for mouse B16 cells to IC50 for Trypanosoma lewisi; type: toxicity, cell-based; details: B16 cells versus Trypanosoma lewisi, read-out: Ratio IC50
[4] = Selectivity index, ratio of IC50 for mouse L1210 cells to IC50 for Leishmania tarentolae; type: toxicity, cell-based; details: L1210 cells versus Leishmania tarentolae, read-out: Ratio IC50
[5] = Selectivity index, ratio of IC50 for mouse B16 cells to IC50 for Leishmania tarentolae; type: toxicity, cell-based; details: B16 cells versus Leishmania tarentolae, read-out: Ratio IC50
[6] = Selectivity index, ratio of IC50 for mouse B16 cells to IC50 for Giardia lamblia
[7] = Selectivity index, ratio of IC50 for mouse L1210 cells to IC50 for Trypanosoma lewisi; type: toxicity, cell-based; details: L1210 cells versus Trypanosoma lewisi, read-out: Ratio IC50
Giardia intestinalis [8] = test: Antiprotozoan activity against Giardia intestinalis assessed as decrease in viability at 12.1 to 21.5 uM after 72 hr by microscopic analysis; type: functional, organism-based; details: Giardia duodenalis

IC50 (Plasmodium falciparum) [µM] | IC50 (Trypanosoma lewisi) [µM] | SMILES | IC50 (B16) [µM] | IC50 (Leishmania tarentolae) [µM] | IC50 (Giardia intestinalis [1]) [µM] | IC50 (L1210) [µM] | Ratio IC50 [2] | selectivity ratio [3] | selectivity ratio [4] | selectivity ratio [5] | Ratio IC50 [6] | selectivity ratio [7] | Activity (Giardia intestinalis [8])
– | 39.5 | COc1ccc(C2C=C(c3cc(OC)c(OC)c(OC)c3)NC(=S)N2)cc1[N+](=O)[O-] (stereo not drawn) | – | 12.5 | 24.3 | – | 4 | 2 | 8 | 8 | 4 | 2 | –
14.5 | 17.9 | COc1ccc(C2C=C(c3cc(OC)c(OC)c(OC)c3)NC(=S)N2)cc1 (stereo not drawn) | 36 | 12.5 | 22.3 | 41 | – | – | – | – | – | – | –
– | 49.2 | COc1ccc(C2C=C(c3cc(OC)c(OC)c(OC)c3)NC(=S)N2)cc1O (stereo not drawn) | – | 12.1 | 21.5 | – | – | – | – | – | – | – | Active
– | 24.3 | COc1cccc(C2C=C(c3cc(OC)c(OC)c(OC)c3)NC(=S)N2)c1 (stereo not drawn) | – | 19.4 | 40.4 | – | – | – | – | – | – | – | –
– | 50 | COc1cc(C2=CC(c3ccc([N+](=O)[O-])cc3)NC(=S)N2)cc(OC)c1OC (stereo not drawn) | – | 13.7 | 21 | – | 4 | 2 | 8 | 8 | 4 | 2 | –
– | 48.4 | COc1ccc(OC)c(C2C=C(c3cc(OC)c(OC)c(OC)c3)NC(=S)N2)c1 (stereo not drawn) | – | 30.3 | 23.5 | – | – | – | – | – | – | – | –
– | 52.1 | COc1ccc(C2C=C(c3cc(OC)c(OC)c(OC)c3)NC(=S)N2)cc1OC (stereo not drawn) | – | 36.4 | 22.7 | – | – | – | – | – | – | – | –

Continued, compound first:

SMILES | IC50 (Plasmodium falciparum) [µM] | IC50 (Trypanosoma lewisi) [µM] | IC50 (B16) [µM] | IC50 (Leishmania tarentolae) [µM] | IC50 (Giardia intestinalis [1]) [µM] | IC50 (L1210) [µM] | Ratio IC50 [2] | selectivity ratio [3] | selectivity ratio [4] | selectivity ratio [5] | Ratio IC50 [6] | selectivity ratio [7] | Activity (Giardia intestinalis [8])
COc1ccc(C2=CC(c3ccc(OC)c(OC)c3)NC(S)=N2)cc1 (stereo not drawn) | 31 | 25.8 | > 100 | 27.2 | > 100 | > 100 | – | – | – | – | – | – | –
COc1ccc(OC)c(C2=CC(c3ccc(OC)c([N+](=O)[O-])c3)NC(=S)N2)c1 (stereo not drawn) | – | 33.3 | – | 21.1 | 57.8 | – | – | – | – | – | – | – | –
COc1cc(C2=CC(c3cc(OC)c(OC)c(OC)c3)NC(=S)N2)cc(OC)c1OC (stereo not drawn) | – | 29.3 | – | 46.6 | 24.8 | – | – | – | – | – | – | – | –
COc1ccc(OC)c(C2=CC(c3cc(OC)c(OC)c(OC)c3)NC(=S)N2)c1 (stereo not drawn) | 13.3 | 15.7 | 0.5 | 16.8 | > 100 | 6 | – | – | – | – | – | – | –
COc1cc(C2=CC(c3ccc(Cl)cc3)NC(=S)N2)cc(OC)c1OC (stereo not drawn) | – | 27 | – | 10.2 | 46.7 | – | – | – | – | – | – | – | –
COc1ccc(C2=CC(c3c(OC)cc(OC)cc3OC)NC(=S)N2)cc1 (stereo not drawn) | 14.6 | 13.4 | 25 | 25.1 | > 100 | 85 | – | – | – | – | – | – | –
COc1ccc(C2=CC(c3ccc(OC)cc3)NC(=S)N2)cc1 (stereo not drawn) | 25 | 15.2 | > 100 | 17.8 | – | > 100 | – | – | – | – | – | – | –
COc1cc(OC)c(C2C=C(c3cc(OC)c(OC)c(OC)c3)NC(=S)N2)c(OC)c1 (stereo not drawn) | – | 29.6 | – | 46.6 | 20.3 | – | – | – | – | – | – | – | –
COc1ccc(C2C=C(c3cc(OC)ccc3OC)NC(=S)N2)cc1 (stereo not drawn) | 69.4 | 16.5 | 80 | 11.4 | > 100 | 87 | – | – | – | – | – | – | –
COc1ccc(OC)c(C2=CC(c3cc(OC)ccc3OC)NC(=S)N2)c1 (stereo not drawn) | 27.9 | 27.3 | > 100 | 18 | > 100 | > 100 | – | – | – | – | – | – | –
COc1cc(OC)c(C2C=C(c3cc(OC)ccc3OC)NC(=S)N2)c(OC)c1 (stereo not drawn) | 17.3 | 25 | – | 10.4 | 33.8 | – | – | – | – | – | – | – | –
